According to ChEMBL document CHEMBL5154795, “Exploring the structure-activity relationships of diphenylurea as an antibacterial scaffold active against methicillin- and vancomycin-resistant Staphylococcus aureus” (Eur J Med Chem, 2022):
≈ marks a conversion by molar mass, not a printed value. Calls of active or inactive are those of the source. No cut-off for these calls is given here.

What was measured:
Staphylococcus aureus [1] = assay: Antibacterial activity against methicillin-resistant Staphylococcus aureus USA300 incubated for 18 to 20 hrs by broth microdilution method; format: functional; conditions: time 18-20 hrs
Staphylococcus aureus [2] = assay: Antibacterial activity against methicillin-resistant Staphylococcus aureus NRS 119 incubated for 18 to 20 hrs by broth microdilution method; format: functional; conditions: time 18-20 hrs
[3] = system: Staphylococcus epidermidis; assay: Antibacterial activity against Staphylococcus epidermidis NRS 101 incubated for 18 to 20 hrs by broth microdilution method; format: functional; conditions: time 18-20 hrs
Staphylococcus aureus [4] = assay: Antibacterial activity against Vancomycin-resistant Staphylococcus aureus 9 incubated for 18 to 20 hrs by broth microdilution method; format: functional; conditions: time 18-20 hrs
Staphylococcus aureus [5] = assay: Antibacterial activity against methicillin-sensitive Staphylococcus aureus ATCC 6538 incubated for 18 to 20 hrs by broth microdilution method; format: functional; conditions: time 18-20 hrs
Staphylococcus aureus [6] = assay: Antibacterial activity against methicillin-sensitive Staphylococcus aureus NRS 107 incubated for 18 to 20 hrs by broth microdilution method; format: functional; conditions: time 18-20 hrs
Staphylococcus aureus [7] = assay: Antibacterial activity against Vancomycin-resistant Staphylococcus aureus 10 incubated for 18 to 20 hrs by broth microdilution method; format: functional; conditions: time 18-20 hrs
Staphylococcus aureus [8] = assay: Antibacterial activity against methicillin-resistant Staphylococcus aureus NRS 384 (USA300) incubated for 18 to 20 hrs by broth microdilution method; format: functional; conditions: time 18-20 hrs
Staphylococcus aureus [9] = assay: Antibacterial activity against methicillin-resistant Staphylococcus aureus NRS 123 (USA400) incubated for 18 to 20 hrs by broth microdilution method; format: functional; conditions: time 18-20 hrs
Staphylococcus aureus [10] = assay: microbe, parasite or virus in culture; conditions: 2
Staphylococcus aureus [11] = assay: microbe, parasite or virus in culture; conditions: 1
Staphylococcus aureus [12] = assay: Antibacterial activity against Vancomycin-resistant Staphylococcus aureus 12 incubated for 18 to 20 hrs by broth microdilution method; format: functional; conditions: time 18-20 hrs
Staphylococcus aureus [13] = assay: microbe, parasite or virus in culture; conditions: 13
Staphylococcus aureus [14] = assay: Antibacterial activity against methicillin-resistant Staphylococcus aureus USA400 NRS 123 assessed as time of post-antibiotic effect at 5 times MIC incubated for 2 hrs followed by compound washout and measured every single 1 hr; format: functional
Staphylococcus aureus [15] = assay: microbe, parasite or virus in culture; conditions: 3a
Staphylococcus aureus [16] = assay: microbe, parasite or virus in culture; conditions: 3b
Staphylococcus aureus [17] = assay: Antibacterial activity against methicillin-resistant Staphylococcus aureus USA300 infected in BALB/c mouse assessed as recovery of body weight loss administered 72 hrs post infection topically twice daily for 4 days; format: functional, organism-based; conditions: time 4.0 day
Staphylococcus aureus [18] = assay: Antibacterial activity against methicillin-resistant Staphylococcus aureus USA300 infected in BALB/c mouse assessed as reduction in bacterial count administered 72 hrs post infection topically twice daily for 4 days; format: functional, organism-based; conditions: time 4.0 day
Staphylococcus aureus [19] = assay: Antibacterial activity against methicillin-resistant Staphylococcus aureus USA300 infected in BALB/c mouse assessed as reduction in bacterial count in spleen administered 72 hrs post infection topically twice daily for 4 days; format: functional, organism-based; conditions: time 4.0 day

Compound: C/C(=N\NC(=N)N)c1ccc(NC(=O)Nc2ccc(-c3ccccc3)cc2)cc1
- MIC (Staphylococcus aureus [1]): 4 µg/mL (≈ 10.4 µM)

Compound: C/C(=N\NC(=N)N)c1ccc(NC(=O)Nc2ccc(-c3ccccc3C)cc2)cc1
- MIC (Staphylococcus aureus [1]): 4 µg/mL (≈ 9.99 µM)

Compound: CC(=O)NC[C@H]1CN(c2ccc(N3CCOCC3)c(F)c2)C(=O)O1 [LINEZOLID]
- MIC (Staphylococcus aureus [2]): 32 µg/mL (≈ 94.9 µM)
- MIC [3]: 1 µg/mL (≈ 2.96 µM)
- MIC (Staphylococcus aureus [4]): 1 µg/mL (≈ 2.96 µM)
- MIC (Staphylococcus aureus [5]): 1 µg/mL (≈ 2.96 µM)
- MIC (Staphylococcus aureus [6]): 1 µg/mL (≈ 2.96 µM)
- MIC (Staphylococcus aureus [7]): 1 µg/mL (≈ 2.96 µM)
- MIC (Staphylococcus aureus [8]): 1 µg/mL (≈ 2.96 µM)
- MIC (Staphylococcus aureus [9]): 1 µg/mL (≈ 2.96 µM)

Compound: CN[C@H](CC(C)C)C(=O)N[C@H]1C(=O)N[C@@H](CC(N)=O)C(=O)N[C@H]2C(=O)N[C@H]3C(=O)N[C@H](C(=O)N[C@H](C(=O)O)c4cc(O)cc(O)c4-c4cc3ccc4O)[C@H](O)c3ccc(c(Cl)c3)Oc3cc2cc(c3O[C@@H]2O[C@H](CO)[C@@H](O)[C@H](O)[C@H]2O[C@H]2C[C@](C)(N)[C@H](O)[C@H](C)O2)Oc2ccc(cc2Cl)[C@H]1O [VANCOMYCIN]
- MIC (Staphylococcus aureus [10]): 64 µg/mL (≈ 44.2 µM)
- MIC (Staphylococcus aureus [11]): 64 µg/mL (≈ 44.2 µM)
- MIC (Staphylococcus aureus [4]): > 64 µg/mL
- MIC (Staphylococcus aureus [12]): > 64 µg/mL
- MIC (Staphylococcus aureus [13]): > 512 µg/mL
- Time (Staphylococcus aureus [14]): 3 h
- MIC (Staphylococcus aureus [7]): 64 µg/mL (≈ 44.2 µM)
- MIC (Staphylococcus aureus [15]): 64 µg/mL (≈ 44.2 µM)
- MIC (Staphylococcus aureus [16]): 64 µg/mL (≈ 44.2 µM)

Compound: C/C(=N\NC(=N)N)c1ccc(NC(=O)Nc2ccc(-c3cccnc3)cc2)cc1
- MIC (Staphylococcus aureus [1]): 4 µg/mL (≈ 10.3 µM)

Compound: C/C(=N\NC(=N)N)c1ccc(NC(=O)Nc2ccc(-c3cccc(C)c3)cc2)cc1
- MIC (Staphylococcus aureus [1]): 4 µg/mL (≈ 9.99 µM)

Compound: C/C(=N\NC(=N)N)c1ccc(NC(=O)Nc2ccc(-c3ccc4ccccc4c3)cc2)cc1
- MIC (Staphylococcus aureus [1]): 4 µg/mL (≈ 9.16 µM)

Compound: C/C(=N\NC(=N)N)c1ccc(NC(=O)Nc2ccc(Cc3ccccc3)cc2)cc1
- MIC (Staphylococcus aureus [1]): 4 µg/mL (≈ 9.99 µM)

Compound: C/C(=N\NC(=N)N)c1ccc(NC(=O)Nc2ccc(-c3cc4ccccc4s3)cc2)cc1
- MIC (Staphylococcus aureus [1]): 4 µg/mL (≈ 9.04 µM)

Compound: CC(=O)O[C@H]1C[C@@]2(C)[C@@H](C[C@@H](O)[C@H]3[C@@]4(C)CC[C@@H](O)[C@@H](C)[C@@H]4CC[C@@]32C)/C1=C(\CCC=C(C)C)C(=O)O
- Activity (Staphylococcus aureus [17]): Active
- Activity (Staphylococcus aureus [18]): Active
- Activity (Staphylococcus aureus [19]): Active

Compound: C/C(=N\NC(=N)N)c1ccc(NC(=O)Nc2ccc(C3CC3)cc2)cc1
- MIC (Staphylococcus aureus [1]): ≥ 64 µg/mL

Compound: C/C(=N\NC(=N)N)c1ccc(NC(=O)Nc2ccc(-c3ccc(C)cc3)cc2)cc1
- MIC (Staphylococcus aureus [1]): 4 µg/mL (≈ 9.99 µM)
